Experiment: gradient 5% acetonitrile 3 min, to 50% in 2 min, to 85% in 15 min, held 3 min, 100 µL/min
Details: column: Zorbax Extend-C18 2.1 x 50 mm; eluents: water / acetonitrile, 0.1% formic acid
Outline: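 Retention times of pure standards were taken from adduct peaks that were selected by computer and manually inspected. Over 3 months, mixtures of ~100 molecules were run by HPLC–quadrupole time-of-flight mass spectrometry in positive and negative ionization mode. The Zorbax Extend-C18 column (2.1 × 50 mm, 1.8 μm) ran at 100 μL/min in water and acetonitrile, each containing 0.1% formic acid, with 40 μL dead volume and 900 μL dwell volume.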

SMILES	RP-LC retention time
O=C(c1cccs1)N1CCCc2cc(NS(=O)(=O)c3cc(F)ccc3F)ccc21	832 s
Cc1cc(Br)ccc1NC(=O)CCc1nc(C2=CCN(C)CC2)no1	642 s
COc1ccc(Nc2c(-c3ccc(C)cc3)nc3cnc(Br)cn23)cc1OC	915 s
Cc1ccc(-c2ncc(C(=O)N3CC=C(c4ccccc4)CC3)c(-c3ccncc3)n2)cc1	1110 s
CCOc1cccc(-c2noc(Cc3nnc(-c4ccc(C)c(F)c4)o3)n2)c1	1160 s
COc1ccc(COc2cc3oc(=O)c4cc(C(C)O)ccc4c3cc2OC)cc1 (configuration not stated)	942 s
Cc1nc(-c2ccc(C(=O)NC3CCCC3)cc2)cs1	825 s
Cc1ccc(CNC(=O)CCc2nnc3c4cc(-c5ccccc5)nn4ccn23)cc1C	815 s
Cn1cc2c3c(cccc31)CN(C(=O)Cc1ccc(Cl)cc1)CC2	986 s
CCN1CCN(c2nccc(-c3cnc4nc(-c5ccccc5)nn4c3C)n2)CC1	633 s
CCc1nc2cc(-c3noc(-c4ccc(OC)nc4)n3)ccc2o1	1180 s
Cc1cc(C)cc(NC(=O)Cn2nc(C(=O)N3CCOCC3)c3ccccc32)c1	819 s
O=S(=O)(c1cc(-c2noc(C3CCCC3)n2)cs1)N1CCC2(CC1)OCCO2	1140 s
CC(C)Oc1ccc(CN2C[C@@H]3C(=O)N(CCCN4CCCC4=O)C(=O)[C@@H]3C2)cc1	581 s
CCc1nc(-c2ccc3c(c2)CCN3C(=O)Cc2ccc(F)cc2)no1	1030 s
Cc1ccc2c(NCc3ccc4c(c3)OCO4)c(C(=O)OC(C)C)cnc2n1	737 s
CCOC(=O)c1[nH]c(C)c(C(=O)N2CCC(CC(=O)N3CCN(CC)CC3)CC2)c1C	579 s
CCc1nnc(-c2ccc(NS(=O)(=O)c3cccs3)cc2)o1	772 s
COc1ccc(NC(=O)Cn2c(C(C)C)nc3c(c2=O)CCN(Cc2ccccc2)C3)cc1OC	659 s
CCc1nc(-c2ccc(-c3noc(-c4ccnn4C)n3)cc2)cs1	1220 s
O=C(Cn1cc(C(=O)C2CC2)c2ccccc21)NCc1ccc2c(c1)OCCCO2	831 s
CC1(C(=O)NC2CCCCC2)CN(S(=O)(=O)c2ccccc2)CC(=O)N1c1ccccc1F (configuration not stated)	932 s

SMILES	RP-LC retention time
Cc1ccc(Cl)cc1NC(=O)N1CCC(c2nc3ccncc3n2C(C)C)C1 (configuration not stated)	573 s
CNC(=O)C1CCCN(c2nc3ncn(CC(=O)Nc4cccc(Cl)c4)c(=O)c3s2)C1 (configuration not stated)	672 s
O=C(Nc1cccn2c(C3CCC3)nnc12)c1ccccn1	781 s
CN(C(=O)Cn1cnc2c(-c3ccc(Cl)cc3)csc2c1=O)c1ccccc1	1020 s
Cc1nc2cc(-c3noc(/C=C/c4ccccc4)n3)ccc2o1	1140 s
CC(C)c1ccc(-c2nc3ncccn3c2NCc2ccc(Cl)cc2)cc1	936 s
O=C(Nc1cccc(Cl)c1)N1CCC(n2cnc3cc(F)ccc3c2=O)CC1	858 s
COc1ccc(-c2noc(-c3cccnc3N3CCN(c4ccccc4OC)CC3)n2)cc1	1150 s
CCOc1ccc(-c2ccc(=O)n(Cc3nc(-c4ccc(OC(C)C)cc4)no3)n2)cc1	826 s
CC(=O)N1c2ccc(S(=O)(=O)N(C)CC(=O)N3CCN(c4ccccn4)CC3)cc2CC1C (configuration not stated)	590 s
O=C(CCCc1nc2cccnc2n1Cc1ccc(F)cc1)N1CCN(c2ccccn2)CC1	606 s
Cc1ccc(-c2nnc(Cc3nc(-c4ccc(C(F)(F)F)cc4)no3)o2)cc1F	1180 s
CCN(c1ccccc1C)S(=O)(=O)c1cc(-c2[nH]ncc2C(=O)N2CCCC2)oc1C	819 s
O=c1ccc(-c2ccc(F)cc2)nn1CCc1nc(-c2cccc(Br)c2)no1	1100 s
Cc1ccc(C)c(N2CCN(c3ccnc(SCC(=O)NCc4ccccc4Cl)n3)CC2)c1	952 s
CCc1ccc(NC(=O)C2CCc3nc(N4CCOCC4)ncc3C2)cc1 (configuration not stated)	835 s
CCCn1c(=O)c(C)nc2cc(-c3noc(C4CC(=O)N(C5CCCC5)C4)n3)ccc21 (configuration not stated)	878 s
Cc1noc(C)c1C1CCCN1C(=O)Cc1cccc(Cl)c1 (configuration not stated)	810 s
CCc1nc2cc(-c3noc(Cc4ccc(OC)c(Cl)c4)n3)ccc2o1	1120 s
Cc1csc(-c2ccc(N3CCN(C(=O)c4cc(F)ccc4F)CC3)nc2)n1	996 s
COc1ccc(N2C=C(C#N)S(=O)(=O)c3ccc(F)cc32)cc1OC	893 s
Cc1nn(Cc2nc(-c3ccc(NC(=O)c4ccsc4)cc3)oc2C)c(C)c1C	955 s

SMILES	RP-LC retention time
CCN(CC)S(=O)(=O)N1CCC(C(=O)N2CCN(Cc3noc4ccccc34)CC2)CC1	708 s
N#Cc1c(N)nc(SCC(=O)c2ccc(Br)cc2)c(C#N)c1-c1ccccc1	997 s
Cc1nc(N2CCOCC2)c2c(C(=O)NCc3ccc(F)cc3)c(C)oc2n1	702 s
CC1=C(c2ccccc2)S(=O)(=O)N=C1N1CCCN(C(=O)c2cc(F)ccc2F)CC1	827 s
O=C(CC1CCN(C(=O)C2CCCCC2)CC1)NCCCN1CCCC1	595 s
CNCC[C@H](Oc1ccc(C(F)(F)F)cc1)c1ccccc1	818 s
O=C(O)c1cccn2c(=O)c3ccc(F)cc3nc12	687 s
O=C(NCCO)c1cccc(-c2cc(Nc3ccc(OC(F)(F)F)cc3)ncn2)c1	793 s
CC(=O)N1CCC(c2nc(C)c(C(=O)O)s2)CC1	588 s
CC(C)(C)NC(=O)N1CC2CC1C(=O)O2 (configuration not stated)	596 s
CCc1nc2ccccc2c(=O)n1Cc1noc(-c2ccc(F)cc2)n1	998 s
CCCCOc1ccc(-c2cc3c4nnc(CCC(=O)N5CCN(C)CC5)n4ccn3n2)cc1	686 s
Cc1ccccc1NS(=O)(=O)c1cc(-c2[nH]ncc2C(=O)N(C)C)oc1C	673 s
COc1ccc(NC(=O)C2c3cc(OC)c(OC)cc3C(=O)N(C)C2c2cccnc2)cc1Cl (configuration not stated)	660 s
CCn1cc(-c2nc(CC(=O)NC3CCCC3)cs2)c2cccnc21	848 s
Cc1oc(-c2ccc(C(=O)NCCc3ccco3)cc2)nc1CN1CCc2ccccc21	1050 s
CO[C@H]1C(=O)N(C2CCN(S(=O)(=O)c3c(C)noc3C)CC2)[C@H]1c1ccncc1	625 s
Fc1cnccc1CN1CCC(N2CC3(CCCCC3)C2c2ccccc2)CC1 (configuration not stated)	596 s
COc1ccc(-c2nnc(-c3ccc(OC)c(S(=O)(=O)N4CCOCC4)c3)o2)cc1OC	768 s
COc1ccc(-c2nnc3n2N=C(c2ccc([N+](=O)[O-])cc2)CS3)cc1OC	723 s
Cc1nc(C2(C)CCN(S(=O)(=O)c3cc(C)c(C)cc3C)CC2)no1	1070 s
COCCNC(=O)CCc1cc2ccc(C)cc2[nH]c1=O	614 s

SMILES	RP-LC retention time
COc1ccc(-c2nnc(COc3cccc(NC(=O)C4CCCC4)c3)o2)cc1	959 s
Cc1cccc(Cn2c(=O)n(CCNC(=O)C3CCOC3)c3ncccc32)c1 (configuration not stated)	698 s
CSc1cccc(NC(=O)C2CCCN(C(=O)c3cc(-c4ccncc4)n[nH]3)C2)c1 (configuration not stated)	645 s
Cc1nn(C(C)C(=O)NCCN2CCCCCC2)c(=O)c2c(-n3cccc3)n(-c3ccccc3)nc12 (configuration not stated)	736 s
CCN(CC)C(=O)c1c(C)sc2ccn(Cc3ccc(F)cc3)c(=O)c12	828 s
CCC(C)NC(=O)c1cc(=O)[nH]c2ccccc12 (configuration not stated)	645 s
Cc1ccc(NC(=O)N2CCC(N3CCN(Cc4ccccc4)C(=O)C3=O)CC2)cc1C	780 s
O=C(Nc1ccc2c(c1)OCCO2)N1CCCn2nc(-c3cccs3)cc2C1	777 s
CC(C)NC[C@H](O)COc1cccc2[nH]ccc12	603 s
Cc1ccc(-c2csc(NC(=O)CCc3nc(CSc4nc5ccccc5o4)no3)n2)cc1	1130 s
O=S(=O)(NCc1ccc(F)cc1)c1ccccc1-c1nc(-c2ccc(F)cc2)no1	1180 s
COC(=O)N1CCN(CCNC(=O)c2cccc3ccccc23)CC1	542 s
CCc1cccc(NC(=O)Cn2nc3cc(C)nc(Nc4ccc(F)c(C)c4)n3c2=O)c1	1190 s
COc1cccc(-c2noc(Cn3ccn(-c4ccccc4)c(=O)c3=O)n2)c1	812 s
CCc1ccc(NC(=O)N2CCC(c3nc(C(=O)N(C)C)c(C)o3)CC2)cc1	769 s
O=C(c1ccncc1)N1CCCCC1c1nc(-c2ccncc2)no1 (configuration not stated)	689 s
Cc1ccc(S(=O)(=O)N2CCC(CCC(=O)NC3CC3)CC2)cc1	789 s
COc1ccc(C(=O)n2nc(C)cc2C)cc1OC	788 s
O=C(Nc1ccc(OCc2nnc(-c3ccccc3)o2)cc1)c1ccnc(Cl)c1	908 s
O=S(=O)(Cc1ccc(F)cc1)NCCc1csc2nc(-c3cccs3)nn12	822 s
CCCCn1c(CN2CCCC2)nc2cc(NC(=O)CC)ccc21	605 s

— the METLIN SMRT retention time set (Domingo-Almenara et al. 2019)
